The results in this text go back to patent US8399683B2 (TetraLogic Pharmaceuticals, priority 2008, dated 2013).

pKd: −log10 of the molar value. Where only a bound is given, the exact number is not on record here.

For one assay, the target named is cIAP-1 BIR-3 (Homo sapiens, UniProt Q13490). Put plainly: Fluorescence polarization binding affinity to cIAP-1 BIR-3 (competition with AbuRPF-K(5-Fam)-NH2). Particulars: 5 nM labeled peptide, 40 nM BIR3, 15 min at RT, pH 7.5; reported as ranges; read-out: KD (c-IAP-1 BIR3). The method, then:
(§1) The binding affinities of the compounds are reported as a KD value (μM). Briefly, various concentrations of test peptides were mixed with 5 nM of the fluorescently labeled peptide (i.e., a mutated N-terminal Smac peptide—AbuRPF-K(5-Fam)-NH2) and 40 nM of the respective IAP BIR3 for 15 min at RT in […] of 0.1M Potassium Phosphate buffer, pH 7.5 containing […] bovine g-globulin. Following incubation, the polarization values (mP) were measured on a Victor2V (available from PerkinElmer Life Sciences) using a 485 nm excitation filter and a 520 nm emission filter. The reported KD values are supplied as ranges (A=<0.1 μM, B=0.1 μM to 1 μM, C>1 μM to 10 μM, D=>10 μM).

In a further assay the target is T1, XIAP BIR-3 (Homo sapiens, UniProt P98170).
T1 construct: 40 nM of the respective IAP BIR3
The assay can be described thus: Fluorescence polarization binding affinity to XIAP BIR-3 (competition with AbuRPF-K(5-Fam)-NH2). The following applies: 5 nM labeled peptide, 40 nM BIR3, 15 min at RT, pH 7.5; reported as ranges. The method, then: as §1
Background: Polarisation of emitted light reports the rotation of a fluorescent probe.

The next assay deals with SK-OV-3 cells. Put plainly: Growth inhibition of ovarian cancer cell line SK-OV-3 (MTT assay, cell survival). Particulars: Homo sapiens, drug concentration that results in 50% cell survival, 72 hrs incubation, reported as ranges. In kind it is cell-based. The method, then:
Compounds of the invention also were tested for their ability to inhibit the growth of an ovarian cancer cell line, SK-OV-3. A known assay previously used for measuring cell growth (as described in Hansen, M. B., Nielsen, S. E., and Berg, K. (1989) J. Immunol. Methods 119, 203-210 and incorporated herein by reference in its entirety) was used. Briefly, SK-OV-3 cells are seeded in 96-well plates in McCoy's medium containing 10% fetal bovine serum albumin (5,000 per well) and incubated overnight at 37° C. The next day, test compounds are added at various concentrations (0.003-10 μM) and the plates are incubated at 37° C. for an additional 72 hrs. This incubation time was considered to be optimal for measuring inhibitory effects of the different compounds tested. 50 microliters of 5 mg/mL MTT reagent is added to each well and the plates are incubated at 37° C. for another three (3) hours. At the end of the three (3) hour incubation period, 50 microliters of DMSO is added to each well to dissolve cells and the optical density (OD) of the wells is measured with a microplate reader (Victor^2 1420, Wallac, Finland) at 535 nm. Cell survival (CS) was calculated using the following equation: CS=(OD treated well/mean OD control wells)×100%.
The CC50 (reported in the following tables), is defined as the drug concentration that results in 50% cell survival (CS), and is derived by calculating the point where the dose-response curve crosses the 50% CS point using GraphPad Prism. The reported CC50 values are supplied as ranges (A=<0.1 μM, B=0.1 μM to 1 μM, C=>1 μM to 10 μM, D=>10 μM).

Chain of cIAP-1 BIR-3 (Q13490 266-352 limits assumed): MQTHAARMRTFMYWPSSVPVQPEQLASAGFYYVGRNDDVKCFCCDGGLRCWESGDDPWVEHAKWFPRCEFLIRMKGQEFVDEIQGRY
T1 sequence (P98170 241-356 limits assumed): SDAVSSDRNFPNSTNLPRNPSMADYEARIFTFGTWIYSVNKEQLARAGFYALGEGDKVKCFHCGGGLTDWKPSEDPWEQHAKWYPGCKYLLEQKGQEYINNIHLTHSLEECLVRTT

In the case of `CN[C@@H](C)C(=O)N[C@H](C(=O)N1CC[C@@H]2[C@H]1[C@@H](c1c[nH]c3ccc(F)cc13)CN2C(C)=O)C(C)(C)C` [Example 69, N-{1-[4-Acetyl-6-(5-fluoro-1H-indol-3-yl)-hexahydro-pyrrolo[3,2-b]pyrrole-1-carbonyl]-2,2-dimethyl-propyl}-2-methylamino-propionamide], the negative-log Kd (pKd) at cIAP-1 BIR-3 and on XIAP BIR-3 was over 7.00 throughout. Moreover, the CC50 (usually the concentration at which the toxic effect on the cells reaches its halfway point) in the assay with SK-OV-3 cells was under 100 nM.
Take `CN[C@@H](C)C(=O)N[C@H](C(=O)N1CC[C@@H]2[C@H]1[C@@H](c1c[nH]c3cc(F)ccc13)CN2C(=O)Cc1ccccc1)C1CCCCC1` [Example 39, N-{1-Cyclohexyl-2-[6-(6-fluoro-1H-indol-3-yl)-4-phenylacetyl-hexahydro-pyrrolo[3,2-b]pyrrol-1-yl]-2-oxo-ethyl}-2-methylamino-propionamide]: the pKd on cIAP-1 BIR-3 and at XIAP BIR-3 was over 7.00 in each case. In addition, in the assay with SK-OV-3 cells, the CC50 was under 100 nM.
Regarding `CN[C@@H](C)C(=O)N[C@H](C(=O)N1CC[C@@H]2[C@H]1[C@@H](c1c[nH]c3cc(F)ccc13)CN2C1CCCC1)[C@@H](C)OC` [Example 16, N-{1-[4-Cyclopentyl-6-(6-fluoro-1H-indol-3-yl)-hexahydro-pyrrolo-[3,2-b]pyrrole-1-carbonyl]-2-methoxy-propyl}-2-methylamino-propionamide], the pKd (in general, −log10 of the Kd, conventionally taken in molar units) on cIAP-1 BIR-3 was over 7.00; at XIAP BIR-3, 6.00 to 7.00. Further, the CC50 in the assay on SK-OV-3 cells lay in the range of 100 to 1000 nM.
Turning to `CN[C@@H](C)C(=O)N[C@@H](CO)C(=O)N1CC[C@@H]2[C@H]1[C@H](c1c[nH]c3cc(F)ccc13)CN2C1CCCC1` [Example 10, N-{2-[4-Cyclopentyl-6-(6-fluoro-1H-indol-3-yl)-hexahydro-pyrrolo[3,2-b]pyrrol-1-yl]-1-hydroxymethyl-2-oxo-ethyl}-2-methylamino-propionamide], the pKd is 6.00 to 7.00 on cIAP-1 BIR-3 and under 5.00 on XIAP BIR-3. In addition, the CC50 in the assay on SK-OV-3 cells was 1000 to 10000 nM.
For `CN[C@@H](C)C(=O)N[C@H](C(=O)N1CC[C@@H]2[C@H]1[C@H](c1c[nH]c3cc(F)ccc13)CN2C1CCCC1)C(C)(C)C` [Example 3, N-{1-[4-Cyclopentyl-6-(6-fluoro-1H-indol-3-yl)-hexahydro-pyrrolo[3,2-b]pyrrole-1-carbonyl]-2,2-dimethyl-propyl}-2-methylamino-propionamide], in that order: 5.00 to 6.00, 5.00 to 6.00 and 1000 to 10000 nM.
On to `CN[C@@H](C)C(=O)N[C@H](C(=O)N1CC[C@@H]2[C@H]1[C@@H](c1c[nH]c3cc(F)ccc13)CN2C(=O)C1CC1)C1CCCCC1` [Example 40, N-{1-Cyclohexyl-2-[4-cyclopropanecarbonyl-6-(6-fluoro-1H-indol-3-yl)-hexahydro-pyrrolo[3,2-b]pyrrol-1-yl]-2-oxo-ethyl}-2-methylamino-propionamide], for which the pKd at cIAP-1 BIR-3 and on XIAP BIR-3 was over 7.00 each time. This molecule yielded a CC50 in the assay on SK-OV-3 cells of under 100 nM.
For `CN[C@@H](C)C(=O)N[C@H](C(=O)N1CC[C@@H]2[C@H]1[C@@H](c1c[nH]c3cc(F)ccc13)CN2C(C)C)C1CCCCC1` [Example 19, N-{1-Cyclohexyl-2-[6-(6-fluoro-1H-indol-3-yl)-4-isopropyl-hexahydro-pyrrolo[3,2-b]pyrrol-1-yl]-2-oxo-ethyl}-2-methylamino-propionamide], the pKd on cIAP-1 BIR-3 is over 7.00; on XIAP BIR-3, 5.00 to 6.00. For the same molecule, in the assay with SK-OV-3 cells, the cytotoxic concentration (CC50) lay within 100 to 1000 nM.
For `CN[C@@H](C)C(=O)N[C@H](C(=O)N1CC[C@@H]2[C@H]1[C@@H](c1c[nH]c3cc(F)ccc13)CN2c1ncccn1)C(C)(C)C` [Example 79, N-{1-[6-(6-Fluoro-1H-indol-3-yl)-4-pyrimidin-2-yl-hexahydro-pyrrolo[3,2-b]pyrrole-1-carbonyl]-2,2-dimethyl-propyl}-2-methylamino-propionamide], in that order: over 7.00, over 7.00 and under 100 nM.
For `CN[C@@H](C)C(=O)N[C@H](C(=O)N1CC[C@@H]2[C@H]1[C@@H](c1c[nH]c3ccc(F)cc13)CN2C(C)=O)C1CCCCC1` [Example 70, N-{2-[4-Acetyl-6-(5-fluoro-1H-indol-3-yl)-hexahydro-pyrrolo[3,2-b]pyrrol-1-yl]-1-cyclohexyl-2-oxo-ethyl}-2-methylamino-propionamide], in that order: over 7.00, over 7.00 and under 100 nM.
For `CN[C@@H](C)C(=O)N[C@H](C(=O)N1CC[C@@H]2[C@H]1[C@@H](c1c[nH]c3cc(F)ccc13)CN2C(=O)OCc1ccccc1)C1CCCCC1` [Example 99], in that order: over 7.00, over 7.00 and under 100 nM.
As for `CN[C@@H](C)C(=O)N[C@@H](COC)C(=O)N1CC[C@@H]2[C@H]1[C@@H](c1c[nH]c3cc(F)ccc13)CN2Cc1ccccc1` [Example 102], the pKd is 6.00 to 7.00 on cIAP-1 BIR-3 and 5.00 to 6.00 at XIAP BIR-3. In addition, the CC50 in the assay with SK-OV-3 cells was in the range of 1000 to 10000 nM.
For the molecule `CN[C@@H](C)C(=O)N[C@H](C(=O)N1CC[C@@H]2[C@H]1[C@@H](c1c[nH]c3cc(F)ccc13)CN2C1CCN(C)CC1)C1CCCCC1` [Example 22, N-{1-Cyclohexyl-2-[6-(6-fluoro-1H-indol-3-yl)-4-(1-methyl-piperidin-4-yl)-hexahydro-pyrrolo[3,2-b]pyrrol-1-yl]-2-oxo-ethyl}-2-methylamino-propionamide], the pKd on cIAP-1 BIR-3 was over 7.00; on XIAP BIR-3 it was 6.00 to 7.00. The CC50 in the assay on SK-OV-3 cells is 100 to 1000 nM.
As to `CN[C@@H](C)C(=O)N[C@H](C(=O)N1CC[C@@H]2[C@H]1[C@@H](c1c[nH]c3ccc(F)cc13)CN2C(C)=O)[C@@H](C)OC` [Example 71, N-{1-[4-Acetyl-6-(5-fluoro-1H-indol-3-yl)-hexahydro-pyrrolo[3,2-b]pyrrole-1-carbonyl]-2-methoxy-propyl}-2-methylamino-propionamide], the negative-log Kd (pKd) at cIAP-1 BIR-3 and at XIAP BIR-3 was over 7.00 throughout. In the assay with SK-OV-3 cells, this molecule returned a cytotoxic concentration (CC50) of under 100 nM.
Consider `CN[C@@H](C)C(=O)N[C@H](C(=O)N1CC[C@@H]2[C@H]1[C@@H](c1c[nH]c3cc(F)ccc13)CN2S(C)(=O)=O)C1CCCCC1` [Example 43, N-{1-Cyclohexyl-2-[6-(6-fluoro-1H-indol-3-yl)-4-methanesulfonyl-hexahydro-pyrrolo[3,2-b]pyrrol-1-yl]-2-oxo-ethyl}-2-methylamino-propionamide], for which the pKd on cIAP-1 BIR-3 and at XIAP BIR-3 was over 7.00 throughout. The molecule also registered a CC50 in the assay with SK-OV-3 cells of under 100 nM.
Consider `CN[C@@H](C)C(=O)N[C@@H](COC)C(=O)N1CC[C@@H]2[C@H]1[C@H](c1c[nH]c3cc(F)ccc13)CN2S(C)(=O)=O` [Example 53, N-{2-[6-(6-Fluoro-1H-indol-3-yl)-4-methanesulfonyl-hexahydro-pyrrolo[3,2-b]pyrrol-1-yl]-1-methoxymethyl-2-oxo-ethyl}-2-methylamino-propionamide], for which the pKd at cIAP-1 BIR-3 was 5.00 to 6.00; on XIAP BIR-3, under 5.00. Also, in the assay on SK-OV-3 cells, the CC50 is over 10000 nM.
For `CN[C@@H](C)C(=O)N[C@H](C(=O)N1CC[C@H]2NC[C@H](c3c[nH]c4cc(F)ccc34)[C@H]21)C1CCCCC1` [Example 32, N-{1-Cyclohexyl-2-[6-(6-fluoro-1H-indol-3-yl)-hexahydro-pyrrolo[3,2-b]pyrrol-1-yl]-2-oxo-ethyl}-2-methylamino-propionamide], in that order: over 7.00, over 7.00 and under 100 nM.
Take `CC[C@H](NC(=O)[C@H](C)NC)C(=O)N1CC[C@@H]2[C@H]1[C@@H](c1c[nH]c3cc(F)ccc13)CN2c1ncccn1` [Example 78, N-{1-[6-(6-Fluoro-1H-indol-3-yl)-4-pyrimidin-2-yl-hexahydro-pyrrolo[3,2-b]pyrrole-1-carbonyl]-propyl}-2-methylamino-propionamide]: the results for the pKd at cIAP-1 BIR-3 and at XIAP BIR-3 were over 7.00 and 6.00 to 7.00, respectively. Further, the half-maximal cytotoxic concentration (CC50) in the assay on SK-OV-3 cells is under 100 nM.
Turning to `CN[C@@H](C)C(=O)N[C@H](C(=O)N1CC[C@H]2NC[C@@H](c3c[nH]c4cc(F)ccc34)[C@H]21)C1CCCCC1` [Example 87], the pKd at cIAP-1 BIR-3 was 5.00 to 6.00; at XIAP BIR-3, under 5.00. Moreover, the CC50 in the assay on SK-OV-3 cells was over 10000 nM.
